Laboratory results: ChEMBL document CHEMBL1133392, “Synthesis of a dihydroxythiophene analogue of catechosporines” (2000)
In brackets after ≈: the same amount, converted by molar mass.

Assays:
Staphylococcus aureus = test: In vitro minimum inhibitory concentration against Staphylococcus aureus (20 strains); type: functional
Pseudomonas aeruginosa = test: In vitro for minimum inhibitory concentration against Pseudomonas aeruginosa (40 strains); type: functional

SMILES: N#Cc1cc(C(O/N=C(\C(=O)N[C@@H]2C(=O)N3C(C(=O)[O-])C(/C=C/C[n+]4cccc5ccsc54)CS[C@H]23)c2csc(N)n2)C(=O)O)cc(O)c1O (stereo partly drawn)
- MIC (Staphylococcus aureus): 1.4 µg/mL (≈ 1.9 µM)
- MIC (Pseudomonas aeruginosa): 0.06 µg/mL (≈ 0.0815 µM)

SMILES: N#Cc1sc(C(O/N=C(\C(=O)N[C@@H]2C(=O)N3C(C(=O)[O-])C(/C=C/C[n+]4cccc5ccccc54)CS[C@H]23)c2csc(N)n2)C(=O)O)c(O)c1O (stereo partly drawn)
- MIC (Staphylococcus aureus): 0.17 µg/mL (≈ 0.231 µM)
- MIC (Pseudomonas aeruginosa): 38 µg/mL (≈ 51.6 µM)

SMILES: N#Cc1ccc(C(O/N=C(\C(=O)N[C@@H]2C(=O)N3C(C(=O)[O-])C(/C=C/C[n+]4cccc5ccsc54)CS[C@H]23)c2csc(N)n2)C(=O)O)c(O)c1O (stereo partly drawn)
- MIC (Staphylococcus aureus): 3.6 µg/mL (≈ 4.89 µM)
- MIC (Pseudomonas aeruginosa): 0.12 µg/mL (≈ 0.163 µM)

SMILES: Nc1nc(/C(=N/OC(C(=O)O)c2cc(O)c(O)cn2)C(=O)N[C@@H]2C(=O)N3C(C(=O)[O-])C(/C=C/C[n+]4cccc5ccsc54)CS[C@H]23)cs1 (stereo partly drawn)
- MIC (Staphylococcus aureus): 0.92 µg/mL (≈ 1.29 µM)
- MIC (Pseudomonas aeruginosa): 3.12 µg/mL (≈ 4.38 µM)
